Measurements: article PMC9846164, “Oral administration of VDAC1-derived small molecule peptides increases circulating testosterone levels in male rats” (Frontiers in Endocrinology, 2023)
Entries after “also recorded” stand apart in the source; their conditions may differ. Square brackets hold non-standard residues; d marks the D form. Peptide text beside a SMILES is read from it.

How the values were obtained:
Brown-Norway rats [1] = test: Oral gavage of peptides; plasma testosterone and corticosterone; type: in vivo, rat; details: ~10 µg/kg oral, 2 hrs after gavage
Experimental: All peptides were dissolved in molecular grade, sterile double distilled water to obtain a 1 mM stock solution and stored at -20°C. Peptides used for oral screenings were prepared from 1 mM peptide stock and diluted in sterile tap water in a total volume of 1 ml.
All samples were measured in duplicate according to each of the manufacturer’s instructions. Serum, plasma, or intratesticular fluid samples were diluted until controls fitted the middle of the standard curve used.

[2] = Peptide stability in plasma; type: in vitro ADME; details: 4 µM peptide (KVSQ 12.5 µM) in 100 µl Brown-Norway rat plasma, 37°C, 1-120 minutes, methanol crash, LC-MS/MS SRM, % of 1 min level, N=3 mean ± SEM, Figure 4J
Experimental: For peptide stability experiments, plasma from Brown-Norway rats aged 90-140 days was collected and stored at -20°C until further use. The plasma was thawed, spun at 12,000 RPM for 10 min, and kept at 4°C. 4 μM of the various peptides were incubated with 100 μL of plasma that was warmed at 37°C for 10 min before use. After 1, 15, 30, 60, 90 or 120 minutes, the plasma/peptide samples were crashed with 300 µL of 100% methanol, spun at 14,000 RPM for 10 min, and the supernatant collected. The methanol in the supernatant was evaporated and the samples were re-extracted. The final pellet was solubilized in 5 μL methanol followed by the addition of 100 μL of sterile double distilled water. The extracted samples were transferred to plastic tubes and placed in the autoloader of the mass spectrometer.
(§1) The analytical instrumentation consisted of a Thermo-Scientific ISQ Quantiva Triple Quadrupole Mass Spectrometer (QQQ), incorporating a heated electrospray ionization (HESI) source, and a Thermo-Scientific UltiMate™ 3000 UHPLC system (including, UltiMate™ 3000 RS autosampler). Analytical conditions were developed using a reference standard in a solution containing 5 µM of the corresponding peptide. The chromatography was resolved by isocratic elution of a binary solvent system incorporating (A) 0.1% Formic Acid (aq) and (B) ACN + 0.1% FA and using an Agilent Eclipse Plus™ C18 analytical column (100mm X 2.1mm ID, 1.8 µm particle). A 5µL injection volume and solvent flow rate of 150 µL/min were used. The MS/MS acquisition time was 7 min and total run time was 8.3 min/injection. The triple Quadrupole MS/MS instrumentation conditions were as follows: the HESI source voltage was 3200 V, the sheath gas […], auxilirary gas 20 L/min, sweep gas 2.0 L/min, the ion transfer temperature was 350°C, the vaporizer temperature was 350°C, the CID gas was 1.5 (mTorr) and the dwell time was 100 msec. The Q1 Resolution (FWHM) was 0.4 (unitless) and the Q3 resolution (FWHM) was 0.7 (unitless). The instrument ran in a selected reaction monitoring (SRM), positive ion detection mode at various collision energies (CE) for the following mass transitions: […]

[3] = Oral pharmacokinetics after single oral dose; type: in vivo, rat; details: Brown-Norway, rat; single oral dose 10 mg peptide in 1 ml, fasted 4 hrs, jugular plasma 5-120 minutes, LC-MS/MS, N=4 in two rounds, Figure 4K; read-out: time to peak concentration in blood (converted)
Experimental: (§2) For all oral experiments, administration via gavage began between 8:30-8:50 am with a 3-minute delay between each rat. Animals used for pharmacokinetic studies were fasted for 4 hrs before starting gavage at 1 pm with a 3-minute delay between each rat.
(§3) For oral pharmacokinetic experiments, jugular blood samples were collected following a single oral dose of 10 mg peptide in 1 ml of vehicle after 5, 15, 30, 45, 60, 90, and 120 minutes. Protein inhibitor cocktail (ROCHE, cOmplete protease inhibitors, Cat# 11697498001), which was added into the EDTA collection tubes, was used for KVSQ and RVTQ peptides. Plasma was immediately extracted, and 100 μL of plasma were crashed with 300 µL of 100% methanol, spun at 14,000 RPM for 10 min, and the supernatant harvested. Re-extraction of the precipitant and solubilization of the pellet were as described above.
as §1, with “(unitless).” for “(unitless). The instrument ran in a selected reaction monitoring (SRM), positive ion detection mode at various collision energies (CE) for the following mass transitions:”

Brown-Norway rats [4] = test: Oral pharmacokinetics after single oral dose; type: in vivo, rat; details: single oral dose 10 mg in 1 ml; protease inhibitor cocktail in tubes for KVSQ and RVTQ; LC-MS/MS
Experimental: as §2, §3
as §1, with “(unitless).” for “(unitless). The instrument ran in a selected reaction monitoring (SRM), positive ion detection mode at various collision energies (CE) for the following mass transitions:”

[5] = RdVTQ stability on storage (mass-spec area under the curve); type: physicochemical; details: fresh vs in distilled water at 37°C for 7 - 28 days, freeze/thaw, stored at -20°C; Figure 5F
Experimental: as §1

Compound | half-life in plasma (rank order) [2] | further results
CC[C@@H](C)[C@@H](NC(=O)[C@H](CCCCN)NC(C)=O)C(=O)N[C@H](C(=O)N[C@@H](CCC(N)=O)C(N)=O)[C@@H](C)O [Ac-KdITQ-CONH2] (Ac-K[dI]TQ-NH2) | – | average testosterone levels at ~10 µg/kg (Brown-Norway rats [1]): increased, although not significantly
CC[C@H](C)[C@H](NC(=O)[C@H](CCCNC(=N)N)NC(C)=O)C(=O)N[C@H](C(=O)N[C@@H](CCC(N)=O)C(=O)N[C@H](CO)C(N)=O)[C@@H](C)O [Ac-RITQdS-CONH2] (Ac-RITQ[dS]-NH2) | Ac-RITQdS-CONH2 > RdVTQ > Ac-RdITQ-CONH2 > RITQ > RVTQ > KVSQ | Tmax [3]: ~15 min
CC[C@@H](C)[C@@H](NC(=O)[C@H](CCCNC(=N)N)NC(C)=O)C(=O)N[C@H](C(=O)N[C@@H](CCC(N)=O)C(N)=O)[C@@H](C)O [Ac-RdITQ-CONH2] (Ac-R[dI]TQ-NH2) | Ac-RITQdS-CONH2 > RdVTQ > Ac-RdITQ-CONH2 > RITQ > RVTQ > KVSQ | –
CC(C)[C@H](NC(=O)[C@@H](N)CCCCN)C(=O)N[C@@H](CO)C(=O)N[C@@H](CCC(N)=O)C(=O)O [KVSQ] (H-KVSQ-OH) | rapid degradation; also recorded: Ac-RITQdS-CONH2 > RdVTQ > Ac-RdITQ-CONH2 > RITQ > RVTQ > KVSQ | detection in rat plasma after oral dose (Brown-Norway rats [4]): not detected
CC[C@H](C)[C@H](NC(=O)[C@@H](N)CCCNC(=N)N)C(=O)N[C@H](C(=O)N[C@@H](CCC(N)=O)C(=O)O)[C@@H](C)O [RITQ] (H-RITQ-OH) | Ac-RITQdS-CONH2 > RdVTQ > Ac-RdITQ-CONH2 > RITQ > RVTQ > KVSQ | –
CC(C)[C@H](NC(=O)[C@@H](N)CCCNC(=N)N)C(=O)N[C@H](C(=O)N[C@@H](CCC(N)=O)C(=O)O)[C@@H](C)O [RVTQ] (H-RVTQ-OH) | Ac-RITQdS-CONH2 > RdVTQ > Ac-RdITQ-CONH2 > RITQ > RVTQ > KVSQ | detection in rat plasma after oral dose (Brown-Norway rats [4]): not detected
CC(C)[C@@H](NC(=O)[C@@H](N)CCCNC(=N)N)C(=O)N[C@H](C(=O)N[C@@H](CCC(N)=O)C(=O)O)[C@@H](C)O [RdVTQ] (H-R[dV]TQ-OH) | Ac-RITQdS-CONH2 > RdVTQ > Ac-RdITQ-CONH2 > RITQ > RVTQ > KVSQ | stability (area under the curve by mass-spec) [5]: highly stable
